Article PMC13101830 (Pharmaceutical research, 2023)
Where a SMILES comes first, the peptide text is derived from it.

Tested on: BBB-mimicking system with the co-culture of bEnd.3 and astrocytes
Test: In vitro BBB permeability assay in BBB-mimicking co-culture model
Type: in vitro ADME, mouse
Settings: 10 μg/ml in top chamber, 30-120 min, 37°C

N[C@@H](Cc1cnc[nH]1)C(=O)N[C@@H](Cc1ccc(O)cc1)C(=O)O [His-Tyr] (H-His-Tyr-OH)
permeability coefficient (Pe), apical to basolateral (A > B): 0.12 ± 0.02 × 10^−5 cm^2/second
